The source of these data is patent publication US5730962A, “Depigmenting cosmetic or dermatologic composition containing a benzofuran derivative and its use in depigmentating skin” (L'Oreal, priority 1991, dated 1998).

This experiment concerns fungus tyrosinase. Description: in vitro inhibition test of the activity of tyrosinase (dopachrome formation, 475 nm). The conditions noted are these: inhibitor at 50 molar percent relative to tyrosine; 0.1M phosphate buffer pH 6.5; 25° C.; optical density at 475 nm at plateau. The experiment is classed as biochemical. From the text:
Certain ones of the benzofuran derivatives have been comparatively studied with respect to hydroquinone, at molar equivalent amounts, in the in vitro inhibition test of the activity of tyrosinase.
According to this test the amount of dopachrome formed during the course of the reaction chain for the transformation of tyrosine into melanins is followed by visible spectrometry at 475 nm. These reactions are catalyzed, in vitro, by fungus tyrosinase, in the presence of a reducing co-substrate(for example, L-dopa in a small amount) to initiate the hydroxylation reaction of L-tyrosine into L-dopa, which is then catalytically oxidized into dopaquinone, then into dopachrome, produced intermediate before the non-enzymatic oxidation reactions terminating in the formation of melanins.
The concentration of dopachrome formed during the course of time in the presence and in the absence of the inhibitor is then measured.
The concentrations of inhibitors are fixed at 50 molar percent relative to the tyrosine concentration in the reaction medium.
The inhibition effect is expressed by the reduction of the maximum amount of dopachrome formed (optical density value at 475 nm read at the plateau of the curve) relative to the amount obtained in the absence of inhibitor.
A--0.1M phosphate buffer pH=6.5 (TWEEN 20 at 1%)
B--L-tyrosine mother solution at 2×10^-3 M in A
C--L-dopa mother solution at 10^-4 M in A
D--Fungus tyrosinase mother solution at 2,400 units/ml in A
E--Inhibitor mother solution at 10^-2 M in A (solutions C and D are prepared the same day).
Homogenize and equilibrate at 25° C.
rapidly mix and observe the kinetics by the measurement of the absorbance at 475 nm as a function of time.
Consider `Oc1ccc2ccoc2c1`, for which the “% inhibitor (reduction of the maximum amount of dopachrome formed relative to the amount obtained in the absence of inhibitor)” value came to 54%.

As for `Oc1ccc(O)cc1` [hydroquinone, reference compound], the “% inhibitor (reduction of the maximum amount of dopachrome formed relative to the amount obtained in the absence of inhibitor)” value was determined as 33%.

In the case of `Oc1ccc2c(c1)OCC2`, the “% inhibitor (reduction of the maximum amount of dopachrome formed relative to the amount obtained in the absence of inhibitor)” value is 66%.

Take `Oc1ccc2occc2c1`: the “% inhibitor (reduction of the maximum amount of dopachrome formed relative to the amount obtained in the absence of inhibitor)” value is given as 56%.
